Toxic doses and inconclusive results are not listed. How the source made its calls: active means survival T/C of 150% or more; inactive means T/C below 125% in these data.
System: CD2F1 mice, L1210 leukemia ip, survival T/C
Experiment: NCI In Vivo Anticancer Drug Screen. Data for tumor model L1210 Leukemia (intraperitoneal) in CD2F1 (CDF1) mice
Conditions: higher = longer survival
In short: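 Compound-dosed mice with transplantable tumor versus matched vehicle controls; endpoint ratio T/C reported.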

[1] = endpoint: mean survival time, dose: 100.0 mg/kg/injection, schedule: Q01DX001 (ip), vehicle: saline
[2] = endpoint: mean survival time, dose: 200.0 mg/kg/injection, schedule: Q01DX001 (ip), vehicle: saline
[3] = endpoint: mean survival time, dose: 400.0 mg/kg/injection, schedule: Q01DX001 (ip), vehicle: saline
[4] = endpoint: mean survival time, dose: 100.0 mg/kg/injection, schedule: Q04DX003 (ip), vehicle: saline with Tween-80
[5] = endpoint: mean survival time, dose: 200.0 mg/kg/injection, schedule: Q04DX003 (ip), vehicle: saline with Tween-80
[6] = endpoint: mean survival time, dose: 100.0 mg/kg/injection, schedule: Q04DX002 (ip), vehicle: saline with Tween-80
[7] = endpoint: mean survival time, dose: 200.0 mg/kg/injection, schedule: Q04DX002 (ip), vehicle: saline with Tween-80
[8] = endpoint: mean survival time, dose: 400.0 mg/kg/injection, schedule: Q04DX002 (ip), vehicle: saline with Tween-80
[9] = endpoint: mean survival time, dose: 100.0 mg/kg/injection, schedule: Q01DX009 (ip), vehicle: saline with Tween-80
[10] = endpoint: mean survival time, dose: 200.0 mg/kg/injection, schedule: Q01DX009 (ip), vehicle: saline with Tween-80
[11] = endpoint: mean survival time, dose: 400.0 mg/kg/injection, schedule: Q01DX009 (ip), vehicle: saline with Tween-80
[12] = endpoint: mean survival time, dose: 400.0 mg/kg/injection, schedule: Q04DX003 (ip), vehicle: saline with Tween-80

Measured: T/C

c1ccc(CC23CCCCC2N3)cc1 (centres undefined)
inactive: endpoint: mean survival time, dose: 100.0 mg/kg/injection, schedule: Q01DX001 (ip), vehicle: saline sonified 96 % of control | endpoint: mean survival time, dose: 200.0 mg/kg/injection, schedule: Q01DX001 (ip), vehicle: saline sonified 94 % of control

O=CC(O)C(O)C(O)C(O)C(O)CO (centres undefined)
inactive: [1] 94 % of control | [2] 103 % of control | [3] 97 % of control

CCOc1ccccc1NC(=O)C(Br)C(Br)C(=O)O (centres undefined)
inactive: endpoint: mean survival time, dose: 100.0 mg/kg/injection, schedule: Q01DX001 (ip), vehicle: saline with Tween-80 110 % of control | endpoint: mean survival time, dose: 200.0 mg/kg/injection, schedule: Q01DX001 (ip), vehicle: saline with Tween-80 112 % of control | endpoint: mean survival time, dose: 400.0 mg/kg/injection, schedule: Q01DX001 (ip), vehicle: saline with Tween-80 108 % of control

CCCCC(OC(=O)Nc1cccc2ccccc12)C(C)C (centres undefined)
inactive: [4] 91 % of control | [5] 88 % of control

[Pd].[Pd].[S-]CC[S-].[S-]CC[S-].c1ccc([PH+](c2ccccc2)c2ccccc2)cc1.c1ccc([PH+](c2ccccc2)c2ccccc2)cc1
inactive: endpoint: mean survival time, dose: 3.13 mg/kg/injection, schedule: Q04DX003 (ip), vehicle: distilled water + Tween-80 106 % of control | endpoint: mean survival time, dose: 6.25 mg/kg/injection, schedule: Q04DX003 (ip), vehicle: distilled water + Tween-80 98 % of control | endpoint: mean survival time, dose: 12.5 mg/kg/injection, schedule: Q04DX003 (ip), vehicle: distilled water + Tween-80 95 % of control | endpoint: mean survival time, dose: 25.0 mg/kg/injection, schedule: Q04DX003 (ip), vehicle: distilled water + Tween-80 92 % of control | endpoint: mean survival time, dose: 50.0 mg/kg/injection, schedule: Q04DX003 (ip), vehicle: distilled water + Tween-80 95 % of control | endpoint: mean survival time, dose: 100.0 mg/kg/injection, schedule: Q04DX003 (ip), vehicle: distilled water + Tween-80 92 % of control | endpoint: mean survival time, dose: 200.0 mg/kg/injection, schedule: Q04DX003 (ip), vehicle: distilled water + Tween-80 93 % of control

O=C(O)C1CCc2c(cnn2-c2ccccc2)C1 (centres undefined)
inactive: [6] 88 % of control | [7] 100 % of control | [8] 92 % of control

COc1cccc2c1C(=O)c1c(O)c3c(c(O)c1C2=O)C[C@@](O)(/C(C)=N/NC(=O)c1cccc([N+](=O)[O-])c1)C[C@@H]3OC1CC(N)C(O)C(C)O1 (some centres undefined)
inactive: endpoint: mean survival time, dose: 2.0 mg/kg/injection, schedule: Q01DX009 (ip), vehicle: water 121 % of control | endpoint: mean survival time, dose: 4.0 mg/kg/injection, schedule: Q01DX009 (ip), vehicle: water 121 % of control | endpoint: mean survival time, dose: 16.0 mg/kg/injection, schedule: Q01DX009 (ip), vehicle: water 98 % of control

Cc1cc(O)c2c(c1)C(=O)C=CC2=O
inactive: endpoint: mean survival time, dose: 0.12 mg/kg/injection, schedule: Q01DX009 (ip), vehicle: other 102 % of control | endpoint: mean survival time, dose: 0.25 mg/kg/injection, schedule: Q01DX009 (ip), vehicle: other 108 % of control | endpoint: mean survival time, dose: 0.5 mg/kg/injection, schedule: Q01DX009 (ip), vehicle: other 97 % of control | endpoint: mean survival time, dose: 1.0 mg/kg/injection, schedule: Q01DX009 (ip), vehicle: other 93 % of control | endpoint: mean survival time, dose: 2.0 mg/kg/injection, schedule: Q01DX009 (ip), vehicle: other 97 % of control

COC(=O)c1cc(C)c(C)cc1NC1OC(CO)C(O)C1O (centres undefined)
inactive: [1] 91 % of control | [2] 89 % of control | [3] 86 % of control

CCCCOC(=O)CCCC(=O)OCCCC
inactive: [9] 108 % of control | [4] 95 % of control | [10] 104 % of control | [5] 93 % of control | [11] 103 % of control | [12] 95 % of control

N#C/C(=C\c1cccc2ccccc12)c1ccccc1
inactive: [9] 100 % of control | [4] 93 % of control | [10] 96 % of control | [5] 98 % of control | [11] 97 % of control | [12] 102 % of control

O=C(COc1ccc(Cl)cc1Cl)Nc1ccccc1
inactive: [6] 91 % of control | [7] 95 % of control | [8] 98 % of control

Cc1cccc(SCC(=O)O)c1
inactive: endpoint: mean survival time, dose: 100.0 mg/kg/injection, schedule: Q04DX003 (ip), vehicle: other 96 % of control | endpoint: mean survival time, dose: 200.0 mg/kg/injection, schedule: Q04DX003 (ip), vehicle: other 96 % of control | endpoint: mean survival time, dose: 400.0 mg/kg/injection, schedule: Q04DX003 (ip), vehicle: other 94 % of control

Nc1ccc2ccccc2c1N=Nc1ccccc1
inactive: endpoint: mean survival time, dose: 50.0 mg/kg/injection, schedule: Q01DX009 (ip), vehicle: Klucel (hydroxypropylcellulose) (HPC) 106 % of control | endpoint: mean survival time, dose: 100.0 mg/kg/injection, schedule: Q01DX009 (ip), vehicle: Klucel (hydroxypropylcellulose) (HPC) 112 % of control | endpoint: mean survival time, dose: 200.0 mg/kg/injection, schedule: Q01DX009 (ip), vehicle: Klucel (hydroxypropylcellulose) (HPC) 113 % of control | endpoint: mean survival time, dose: 400.0 mg/kg/injection, schedule: Q01DX009 (ip), vehicle: Klucel (hydroxypropylcellulose) (HPC) 103 % of control

Cc1cn(C2CC(OP(=O)(O)OCC3OC(n4cc(C)c(=O)[nH]c4=O)CC3OP(=O)(O)OCC3OC(n4cc(C)c(=O)[nH]c4=O)CC3OP(=O)(O)OCC3OC(n4cc(C)c(=O)[nH]c4=O)CC3OP(=O)(O)OCC3OC(n4ccc(N)nc4=O)C(O)C3O)C(CO)O2)c(=O)[nH]c1=O (centres undefined)
inactive: endpoint: median survival time, dose: 25.0 mg/kg/injection, schedule: Q01DX005 (ip), vehicle: saline 111 % of control | endpoint: median survival time, dose: 50.0 mg/kg/injection, schedule: Q01DX005 (ip), vehicle: saline 114 % of control | endpoint: median survival time, dose: 100.0 mg/kg/injection, schedule: Q01DX005 (ip), vehicle: saline 124 % of control

O=C(C1CC1c1ccccc1)N1CCC(Nc2ccccc2)CC1 (centres undefined)
inactive: endpoint: mean survival time, dose: 100.0 mg/kg/injection, schedule: Q04DX002 (ip), vehicle: other 102 % of control | endpoint: mean survival time, dose: 200.0 mg/kg/injection, schedule: Q04DX002 (ip), vehicle: other 94 % of control | endpoint: mean survival time, dose: 400.0 mg/kg/injection, schedule: Q04DX002 (ip), vehicle: other 90 % of control

COc1cc(C=Nc2cc(Cl)ccc2-n2ccnc2C)ccc1N(CCCl)CCCl
inactive: endpoint: mean survival time, dose: 12.5 mg/kg/injection, schedule: Q04DX003 (ip), vehicle: saline with Tween-80 117 % of control | endpoint: mean survival time, dose: 25.0 mg/kg/injection, schedule: Q04DX003 (ip), vehicle: saline with Tween-80 113 % of control | endpoint: mean survival time, dose: 50.0 mg/kg/injection, schedule: Q04DX003 (ip), vehicle: saline with Tween-80 118 % of control | [5] 115 % of control | [12] 89 % of control

From PubChem BioAssay AID256 (DTP/NCI, 2004)
